Format in all cases: biochemical
One experiment has as its target Pim-1 (Homo sapiens (Human), UniProt P11309). Put plainly: Pim-1 kinase assay. The conditions noted are these: 1 mM ATP; read-out: Pim1 IC50. On the procedure: Supplementation of the STOP buffer with beads and stopping the reactions were done under reduced light. Prior to the stopping reactions STOP buffer with beads was preincubated for 1 h in the dark at room temperature. After stopping the reactions, plates were incubated for 1 h in the dark at room temperature before reading on a PHERAstar FS plate reader (BMG Labtech) under reduced light.

The next experiment has as its target Pim-2 (Homo sapiens (Human), UniProt Q9P1W9). Nature of the experiment: Pim-2 kinase assay. The conditions noted are these: 1 mM ATP; read-out: Pim2 IC50. The procedure: Pim-2 kinase assay—20 μL reactions were run in white 384 well polystyrene plates dotted with 0.8 μL compound/DMSO in the assay buffer (50 mM Tris, pH 7.5, 0.01% Tween-20, 5 mM mgCl2, 0.01% BSA, 5 mM DTT), containing […] Fluorescein-labeled CREBtide peptide substrate (Invitrogen PV3508), 1 mM ATP, and 1 nM enzyme (Invitrogen PV3649) for 2 h at 25° C. Reactions were stopped by addition of 10 μL TR-FRET Dilution Buffer (Invitrogen PV3574) with 30 mM EDTA and 1.5 nM LanthaScreen Tb-CREB pSer133 antibody (Invitrogen PV3566). After 30 min. incubation at room temperature, plates were read on a PHERAstar FS plate reader (BMG Labtech).

A further experiment has as its target Pim-3 (Homo sapiens (Human), UniProt Q86V86). Put plainly: Pim-3 kinase assay. The conditions noted are these: 1 mM ATP; read-out: Pim3 IC50. The procedure: Pim-1 and Pim-3 kinase assays-20 μL reactions were run in white 384 well polystyrene plates dotted with 0.8 μL compound/DMSO in the assay buffer (50 mM Tris, pH 7.5, 0.01% Tween-20, 5 mM mgCl2, 0.01% BSA, 5 mM DTT), containing […] Biotin-labeled BAD peptide substrate (AnaSpec 62269), 1 mM ATP, and 2.5 pM (Pim-1, Invitrogen PV3503) or 1.25 pM (Pim-3, Millipore 14-738) enzyme for 1 h at 25° C. Reactions were stopped by addition of 10 μL STOP Buffer (150 mM Tris, pH=7.5, 150 mM NaCl, 75 mM EDTA, 0.01% Tween-20, 0.3% BSA,) supplemented with Phospho-Bad (Ser112) Antibody (Cell Signaling 9291) diluted 666-fold, and Streptavidin donor beads (PerkinElmer 6760002) along with Protein-A acceptor beads (PerkinElmer 6760137) at 15 μg/mL each. Supplementation of the STOP buffer with beads and stopping the reactions were done under reduced light. Prior to the stopping reactions STOP buffer with beads was preincubated for 1 h in the dark at room temperature. After stopping the reactions, plates were incubated for 1 h in the dark at room temperature before reading on a PHERAstar FS plate reader (BMG Labtech) under reduced light.

The text below walks through data of patent US9802918B2, “Pyridineamine compounds useful as Pim kinase inhibitors” (Incyte Corporation, priority 2015, dated 2017).

Chain of Pim-2 (Q9P1W9 whole entry): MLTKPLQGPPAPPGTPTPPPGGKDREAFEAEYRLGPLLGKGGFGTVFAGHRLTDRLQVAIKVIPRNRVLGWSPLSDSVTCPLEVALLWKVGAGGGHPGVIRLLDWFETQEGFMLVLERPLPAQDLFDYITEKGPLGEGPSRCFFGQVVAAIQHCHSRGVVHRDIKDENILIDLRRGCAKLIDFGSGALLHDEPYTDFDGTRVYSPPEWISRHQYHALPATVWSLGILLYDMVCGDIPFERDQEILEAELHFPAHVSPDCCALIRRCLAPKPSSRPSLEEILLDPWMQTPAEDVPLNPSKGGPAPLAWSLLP
Chain of Pim-1 (P11309 whole entry): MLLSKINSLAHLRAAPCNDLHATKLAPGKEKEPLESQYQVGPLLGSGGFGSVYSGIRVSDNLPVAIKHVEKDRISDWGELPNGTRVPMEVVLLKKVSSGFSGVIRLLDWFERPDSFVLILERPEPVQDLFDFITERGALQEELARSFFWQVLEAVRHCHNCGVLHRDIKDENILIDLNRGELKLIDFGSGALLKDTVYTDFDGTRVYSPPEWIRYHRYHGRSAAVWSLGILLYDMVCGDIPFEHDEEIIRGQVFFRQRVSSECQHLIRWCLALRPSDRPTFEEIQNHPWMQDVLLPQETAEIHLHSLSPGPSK

Consider `C[C@H]1CN(c2ccncc2NCc2ccc(F)c(-c3c(F)cccc3C#N)n2)C[C@@H](N)[C@@H]1O` [Example 17, 2-(6-((4-((3R,4R,5S)-3-Amino-4-hydroxy-5-methylpiperidin-1-yl)pyridin-3-ylamino)methyl)-3-fluoropyridin-2-yl)-3-fluorobenzonitrile], for which the IC50 (usually the concentration that gives 50% inhibition) at Pim-1 is < 10 nM; on Pim-2 it was 100 to 1000 nM; on Pim-3 it was ≤ 10 nM.

As for `C[C@H]1CN(c2ccncc2NCc2ccc(F)c(-c3ccccc3F)n2)C[C@@H](N)[C@@H]1O` [Example 18, (3R,4R,5S)-3-Amino-1-(3-(((5-fluoro-6-(2-fluorophenyl)pyridin-2-yl)methyl)amino)pyridin-4-yl)-5-methylpiperidin-4-ol], the IC50 was < 10 nM at Pim-1, 100 to 1000 nM on Pim-2 and ≤ 10 nM at Pim-3.

In the case of `C[C@@H]1C[C@H](N)CN(c2ccncc2NCc2ccc(F)c(-c3c(F)cccc3F)n2)C1` [Example 19, 4-[(3S,5R)-3-Amino-5-methylpiperidin-1-yl]-N-{[6-(2,6-difluorophenyl)-5-fluoropyridin-2-yl]methyl}pyridin-3-amine], the half-maximal inhibitory concentration (IC50) is < 10 nM at Pim-1, ≤ 100 nM at Pim-2 and ≤ 10 nM on Pim-3.

In the case of `COc1cccc(F)c1-c1nc(CNc2cnccc2N2C[C@H](C)C[C@H](N)C2)ccc1F` [Example 20, 4-((3S,5R)-3-Amino-5-methylpiperidin-1-yl)-N-((5-fluoro-6-(2-fluoro-6-methoxyphenyl)pyridin-2-yl)methyl)pyridin-3-amine], the IC50 on Pim-1 is < 10 nM; at Pim-2 it was 1000 to 10000 nM; at Pim-3, 10 to 50 nM.

Consider `C[C@@H]1C[C@H](N)CN(c2ccncc2NCc2ccc(F)c(-c3c(F)cncc3F)n2)C1` [Example 21, 4-((3S,5R)-3-Amino-5-methylpiperidin-1-yl)-N-((3,3′,5′-trifluoro-2,4′-bipyridin-6-yl)methyl)pyridin-3-amine], for which the IC50 was < 10 nM on Pim-1, 100 to 1000 nM on Pim-2 and ≤ 10 nM at Pim-3.

In the case of `C[C@@H]1C[C@H](N)CN(c2ccncc2NCc2ccc(F)c(-c3c(F)cccc3C#N)n2)C1` [Example 22, 2-(6-((4-((3S,5R)-3-Amino-5-methylpiperidin-1-yl)pyridin-3-ylamino)methyl)-3-fluoropyridin-2-yl)-3-fluorobenzonitrile], the half-maximal inhibitory concentration (IC50) is < 10 nM on Pim-1, 100 to 1000 nM on Pim-2 and ≤ 10 nM at Pim-3.

Turning to `C[C@@H]1C[C@H](N)CN(c2ccncc2NCc2ccc(F)c(-c3ccccc3F)n2)C1` [Example 23, 4-((3S,5R)-3-Amino-5-methylpiperidin-1-yl)-N-((5-fluoro-6-(2-fluorophenyl)pyridin-2-yl)methyl)pyridin-3-amine], the half-maximal inhibitory concentration (IC50) at Pim-1 is < 10 nM; on Pim-2 it was 100 to 1000 nM; on Pim-3, ≤ 10 nM.

As for `C[C@H]1CN(c2ccncc2NCc2ccc(F)c(-c3c(F)cc(C(C)(C)C#N)cc3F)n2)C[C@@H](N)[C@@H]1O` [Example 24, 2-(4-{6-[({4-[(3R,4R,5S)-3-Amino-4-hydroxy-5-methylpiperidin-1-yl]pyridin-3-yl}amino)methyl]-3-fluoropyridin-2-yl}-3,5-difluorophenyl)-2-methylpropanenitrile], the figures for the IC50 at Pim-1, at Pim-2 and on Pim-3 were < 10 nM, ≤ 100 nM and ≤ 10 nM, respectively.

Turning to `C[C@@H]1C[C@H](N)CN(c2ccncc2NCc2ccc(F)c(-c3c(F)cc(C(C)(C)C#N)cc3F)n2)C1` [Example 24A, 2-(4-{6-[({4-[(3S,5R)-3-Amino-5-methylpiperidin-1-yl]pyridin-3-yl}amino)methyl]-3-fluoropyridin-2-yl}-3,5-difluorophenyl)-2-methylpropanenitrile], the IC50 was < 10 nM at Pim-1, ≤ 100 nM on Pim-2 and ≤ 10 nM on Pim-3.

`C[C@H]1CN(c2ccncc2NCc2ccc(F)c(-c3c(F)cccc3F)c2)C[C@@H](N)[C@@H]1O` [Example 24B, (3R,4R,5S)-3-Amino-5-methyl-1-(3-{[(2′,6,6′-trifluorobiphenyl-3-yl)methyl]amino}pyridin-4-yl)piperidin-4-ol]: the IC50 is < 10 nM on Pim-1, 100 to 1000 nM on Pim-2 and ≤ 10 nM on Pim-3.

`C[C@@H]1C[C@H](N)CN(c2ccncc2NCc2ccc(F)c(-c3c(F)cccc3F)c2)C1` [Example 25, 4-[(3S,5R)-3-Amino-5-methylpiperidin-1-yl]-N-[(2′,6,6′-trifluorobiphenyl-3-yl)methyl]pyridin-3-amine]: the IC50 on Pim-1 was < 10 nM; at Pim-2 it was 100 to 1000 nM; on Pim-3 it was ≤ 10 nM.

On to `C[C@@H]1C[C@H](N)CN(c2ccncc2NCc2ccc(F)c(-c3c(F)cc(C4(O)CCC4)cc3F)c2)C1` [Example 26, 1-(5′-((4-((3S,5R)-3-Amino-5-methylpiperidin-1-yl)pyridin-3-ylamino)methyl)-2,2′,6-trifluorobiphenyl-4-yl)cyclobutanol], for which the results for the IC50 at Pim-1, on Pim-2 and on Pim-3 were < 10 nM, 100 to 1000 nM and ≤ 10 nM, respectively.

For `C[C@@H]1C[C@H](N)CN(c2ccncc2NCc2ccc(F)c(-c3c(F)cc(C4(O)CCOCC4)cc3F)c2)C1` [Example 27, 4-(5′-((4-((3S,5R)-3-Amino-5-methylpiperidin-1-yl)pyridin-3-ylamino)methyl)-2,2′,6-trifluorobiphenyl-4-yl)tetrahydro-2H-pyran-4-ol], the IC50 is < 10 nM at Pim-1, 100 to 1000 nM on Pim-2 and ≤ 10 nM at Pim-3.

Take `C[C@H]1CN(c2ccncc2NCc2cccc(-c3c(F)cccc3F)n2)C[C@@H](N)[C@@H]1O` [Example 28, (3R,4R,5S)-3-Amino-1-[3-({[6-(2,6-difluorophenyl)pyridin-2-yl]methyl}amino)pyridin-4-yl]-5-methylpiperidin-4-ol]: the figures for the IC50 at Pim-1, at Pim-2 and at Pim-3 were < 10 nM, 100 to 1000 nM and ≤ 10 nM, respectively.

With `C[C@@H]1C[C@H](N)CN(c2ccncc2NCc2cccc(-c3c(F)cccc3F)n2)C1` [Example 29, 4-[(3S,5R)-3-Amino-5-methylpiperidin-1-yl]-N-{[6-(2,6-difluorophenyl)pyridin-2-yl]methyl}pyridin-3-amine], the IC50 was < 10 nM at Pim-1, 100 to 1000 nM at Pim-2 and ≤ 10 nM at Pim-3.

For the molecule `C[C@H]1CN(c2ccncc2NCc2ccnc(-c3c(F)cccc3F)n2)C[C@@H](N)[C@@H]1O` [Example 30, (3R,4R,5S)-3-Amino-1-[3-({[2-(2,6-difluorophenyl)pyrimidin-4-yl]methyl}amino)pyridin-4-yl]-5-methylpiperidin-4-ol], the IC50 is 10 to 50 nM on Pim-1, 1000 to 10000 nM on Pim-2 and 10 to 50 nM at Pim-3.

With `C[C@@H]1C[C@H](N)CN(c2ccncc2NCc2ccnc(-c3c(F)cccc3F)n2)C1` [Example 31, 4-[(3S,5R)-3-Amino-5-methylpiperidin-1-yl]-N-{[2-(2,6-difluorophenyl)pyrimidin-4-yl]methyl}pyridin-3-amine], the IC50 was < 10 nM at Pim-1, 1000 to 10000 nM at Pim-2 and 10 to 50 nM at Pim-3.

For `C[C@H]1CN(c2ccncc2NCc2ccc(F)c(-c3c(F)cc(N4CCOCC4)cc3F)n2)C[C@@H](N)[C@@H]1O` [Example 32, (3R,4R,5S)-3-Amino-1-(3-(((6-(2,6-difluoro-4-morpholinophenyl)-5-fluoropyridin-2-yl)methyl)amino)pyridin-4-yl)-5-methylpiperidin-4-ol], the IC50 on Pim-1 is < 10 nM; on Pim-2, ≤ 100 nM; at Pim-3, ≤ 10 nM.

For `C[C@@H]1C[C@H](N)CN(c2ccncc2NCc2ccc(F)c(-c3c(F)cc(N4CCOCC4)cc3F)n2)C1` [Example 33, 4-((3S,5R)-3-Amino-5-methylpiperidin-1-yl)-N-((6-(2,6-difluoro-4-morpholinophenyl)-5-fluoropyridin-2-yl)methyl)pyridin-3-amine], the figures for the IC50 at Pim-1, at Pim-2 and on Pim-3 were < 10 nM, ≤ 100 nM and ≤ 10 nM, respectively.

As to `C[C@H]1CN(c2ccncc2NCc2ccc(F)c(-c3c(F)cc(CO)cc3F)n2)C[C@@H](N)[C@@H]1O` [Example 35, (3R,4R,5S)-3-Amino-1-{3-[({6-[2,6-difluoro-4-(hydroxymethyl)phenyl]-5-fluoropyridin-2-yl}methyl)amino]pyridin-4-yl}-5-methylpiperidin-4-ol], the IC50 at Pim-1 was < 10 nM; at Pim-2, ≤ 100 nM; at Pim-3, ≤ 10 nM.
